Legend:
[1] = Apparent permeability across apical to basolateral side in human Calu3 cells
[2] = Efflux ratio of apparent permeability across basolateral to apical side over apical to basolateral side in human Calu3 cells
[3] = Distribution coefficient, log D of the compound; settings: octanol/water
[4] = Apparent permeability across basolateral to apical side in human Calu3 cells

Row | Papp A→B [1] [×10⁻⁶ cm/s] | efflux ratio [2] | logD [3] | Papp B→A [4] [×10⁻⁶ cm/s] | Structure (SMILES)
1 | 3.1 | 3.8 | 0.03 | 11.8 | Cc1c(F)c(N2CCNC(C)C2)cc2c1c(=O)c(C(=O)O)cn2C1CC1 (stereo unspecified) [GREPAFLOXACIN]
2 |  |  | -0.41 |  | C[C@H]1COc2c(N3CCN(C)CC3)c(F)cc3c(=O)c(C(=O)O)cn1c23.C[C@H]1COc2c(N3CCN(C)CC3)c(F)cc3c(=O)c(C(=O)O)cn1c23.O [LEVOFLOXACIN]
3 | 5 |  |  | 10.4 | COc1c(N2C[C@@H]3CCCN[C@@H]3C2)c(F)cc2c(=O)c(C(=O)O)cn(C3CC3)c12 [MOXIFLOXACIN]
4 | 0.6 | 3.3 | -1.16 | 2 | CCn1cc(C(=O)O)c(=O)c2cc(F)c(N3CCNCC3)cc21 [NORFLOXACIN]

Reference: ChEMBL document CHEMBL1212744, “Relative contributions of active mediated transport and passive diffusion of fluoroquinolones with various lipophilicities in a Calu-3 lung epithelial cell model” (Antimicrob Agents Chemother, 2010)
